Assay [1] has as its system E. faecalis ATCC 29212. Briefly: Diffusion-well method, inhibition zones. Type of assay: cell-based, Enterococcus faecalis. The settings on record: 500 µg/mL, wells 10 mm. The gist of the method: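 MHA agar-well diffusion; inoculum 1–2 × 10^8 CFU mL^−1 from 24 h cultures; 10 mm wells; compound 10–500 μg mL^−1 in DMSO; 18 h, 30 °C (Bacillus) / 37 °C (others); zones read in mm.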

Assay [2] relates to glioblastoma LN-229 cells. Briefly: MTT cell viability assay. Type of assay: cell-based, human. Conditions: 48 hours of incubation. In outline: (§1)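 Cells seeded at 2 × 10^4/well, left 24 h, then treated with compound over 1–50 μM for 48 h. Viability was read by MTT colorimetry in triplicate, and IC50 was taken as the concentration lowering viability by 50%.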
The subject of assay [3] is glioblastoma U87 cells. Briefly: MTT cell viability assay. Conditions: 48 hours of incubation. Type of assay: cell-based, human. In outline:
as §1

Assay [4] deals with normal skin fibroblast BJ cells. Briefly: MTT cell viability assay. It is filed as cell-based, human. Conditions: BJ normal fibroblasts; 48 hours of incubation. The gist of the method: as §1

SMILES strings stand for the structures.

The molecule `NC(=NN=Cc1ccccc1)c1cncc(Cl)n1.O.O=[N+]([O-])[O-].[Ag+]` [Complex 1, AgL1NO3 × H2O] had an Inhibition zone in assay [1] of 17 mm. Also, the results for the IC50 in assay [2], in assay [3] and in assay [4] were 25.2 ± 3.75 µM, 8.15 ± 2.67 µM and 20.5 ± 5.21 µM, respectively.

The values are drawn from article PMC12150283, “Synthesis of new Ag(I) and Cd(II) hydrozanomide-based complexes with antibacterial and anticancer properties” (RSC Advances, 2025).
